Source: patent US4612366A, “Cyclic hexapeptide somatostatin analogs” (Merck & Co., Inc., priority 1985, dated 1986)

What was measured:
portal vein glucagon = assay: Decrease of portal vein glucagon levels in anesthetized rats, compared to somatostatin; assay type: in vivo, rat; settings: multiples or fractions of the effect of somatostatin (= 1); urethane-anesthetized male Sprague-Dawley rats, external jugular vein, portal vein blood after 5 minutes
Protocol: (§1) Analogs of somatostatin were compared to somatostatin in their ability to decrease the levels of portal vein glucagon and insulin in anesthetized rats. Male Sprague-Dawley rats (Charles River CD) weighing 160-200 g were anestetized with urethane (150 mg/100 g of body weight; Aldrich). Saline or peptides were administered via the external jugular vein. After 5 minutes, the portal vein was exposed, and blood was collected via syringe containing 3 mg of EDTA and placed in chilled tubes containing 100 μl of Trasylol (FBA Pharmaceuticals) for subsequent hormone analysis. Plasma levels of glucagon were determined by the method of Faloona and Unger, Methods of Hormone Radioimmunossay, Jaffe and Behrman (Eds), Academic Press, New York, Vol. II, pp. 257-527 (1976), utilizing glucagon antisera 30K obtained from R. Unger (Dallas, TX). Plasma levels of insulin were determined by a modification of the procedure of Herbert et al., J. Clin. Endocrinol. Metab., 25, 1375-1384 (1965).
(§2) The test results for some of the compounds of this invention are recorded below with the results for somatostatin listed first and given the arbitrary value of 1. The results for the instant compounds are given as multiples or fractions of the effect of somatostatin. The first of the instant compounds listed is the compound prepared in Example 1-5. […]

portal vein insulin = assay: Decrease of portal vein insulin levels in anesthetized rats, compared to somatostatin; assay type: in vivo, rat; settings: multiples or fractions of the effect of somatostatin (= 1); urethane-anesthetized male Sprague-Dawley rats, external jugular vein, portal vein blood after 5 minutes
Protocol: as §1, §2

C[C@H](N)C(=O)NCC(=O)N[C@H]1CSSC[C@@H](C(=O)O)NC(=O)[C@H](CO)NC(=O)[C@H]([C@@H](C)O)NC(=O)[C@H](Cc2ccccc2)NC(=O)[C@H]([C@@H](C)O)NC(=O)[C@H](CCCCN)NC(=O)[C@H](Cc2c[nH]c3ccccc23)NC(=O)[C@H](Cc2ccccc2)NC(=O)[C@H](Cc2ccccc2)NC(=O)[C@H](CC(N)=O)NC(=O)[C@H](CCCCN)NC1=O [Somatostatin]
Glucagon Inhibition (portal vein glucagon): 1 | Insulin Release Inhibition (portal vein insulin): 1
